Consider one compound from patent US11180423B2, “Compositions and methods for micronutrient introduction” (CHS INC., priority 2014, dated 2021).

The test system of data set [1] is Zea mays (variety DKC 43-48). Nature of the data set: 2012 Corn Trial—St. Cloud, Minn. In kind it is in vivo. Particulars: in furrow, compared to untreated controls. Here is the method: A corn trial utilizing a composition of the instant disclosure was performed in St. Cloud, Minn., in 2012. In this example, the composition comprised ortho-ortho EDDHA as the exemplary ligand.
In this example, Zea mays (variety DKC 43-48) seeds were planted on May 15, 2012. Soil moisture was normal and the seed bed was compacted. The tillage type was conventional till. The treated crop area for the instant example was 300 square feet (ft^2). The study design was randomized complete block (RCB) with four replications.
Corn plants were harvested on Oct. 10, 2012. Thereafter, the yield of corn plants administered the composition comprising ortho-ortho EDDHA was compared to the yield of control corn plants that were untreated.

Data set [2] concerns corn variety Pioneer 8640 Roundup Ready. Nature of the data set: 2013 Corn Trial—Casselton, N. Dak. In kind it is in vivo. To be noted: compared to untreated controls.
For data set [3], the system named is corn variety Dekalb 45-51. Briefly: 2013 Corn Trial—Brookings, S. Dak. In kind it is in vivo. Particulars: compared to untreated controls. On the procedure: A corn trial utilizing a composition of the instant disclosure was performed near Brookings, S. Dak., in 2013. In this example, the composition comprised ortho-ortho EDDHA as the exemplary ligand.
In this example, corn variety Dekalb 45-51 was planted on May 14, 2013. Corn was planted to a population of 32,000 plants per acre, and a 30-inch row spacing was used. The soil type was Brandt silty clay loam.
Corn plants were harvested on Oct. 24, 2013. Thereafter, the yield of corn plants administered the composition comprising ortho-ortho EDDHA was compared to the yield of control corn plants that were untreated.

A further data set has as its system corn seeds. Nature of the data set: 2013 Corn Seed Trial—Brookings, S. Dak. The format is in vivo. Particulars: corn seed treatment; compared to untreated controls. On the procedure: A corn seed trial utilizing a composition of the instant disclosure was performed in Brookings, S. Dak., in 2013. In this example, the composition comprised ortho-ortho EDDHA as the exemplary ligand (i.e., “WC101”). The study design was randomized complete block (RCB) with four replications. […] [table] Plot unit sizes were approximately 10 feet by 40 feet according to the disclosed layout of FIG. 9.

A short description of data set [4]: Visual observations of fertilizer treatment mixes. In kind it is physicochemical. To be noted: various fertilizers, for instance 9-18-9.
Another data set relates to corn. Nature of the data set: 2014 Corn Trial—Scandia, Kans. Particulars: starter fertilizer treatment groups; for yield response (effect in words): FIG. 1, Table 8, improvement especially for groups without micronutrients (10-34-0, 9-18-9). In kind it is in vivo. Here is the method: A corn trial utilizing a composition of the instant disclosure was performed near Scandia, Kans., in 2014. In this example, the composition comprised ortho-ortho EDDHA as the exemplary ligand (i.e., “WC101”).
In this example, corn was planted on May 2, 2014. Treatments were applied as starter applications at planting with an application volume of 6 gpa. Weed control was completed as needed to keep weed free with maintenance sprays.
Data collected included yield (bu/acre), test weight, moisture, preliminary soil analysis, and plant tissue and grain analysis. Grain yield was measured harvesting the two center rows with a plot combine. Total phosphorus (P) content in plant tissue was measured for the ear leaf and grain P concentration was measured after harvest with grain analysis for total P content.
Fertilizer treatment mixes were completed before application. […] Although treatment application was complicated in some instances, the rates and placement for the instant example were believed to be within acceptable parameters. Grain yield was measured harvesting the two center rows with a plot combine. Total phosphorus (P) content in plant tissue was measured for the ear leaf and grain P concentration was measured after harvest with grain analysis for total P content.

Data set [5] deals with glycine max (variety PB0954RR) soybean. Nature of the data set: 2013 Soybean Trial—St. Cloud, Minn. In kind it is in vivo. Particulars: compared to untreated controls. Here is the method: A soybean trial utilizing a composition of the instant disclosure was performed in St. Cloud, Minn., in 2013. In this example, the composition comprised ortho-ortho EDDHA as the exemplary ligand.
In this example, glycine max (variety PB0954RR) soybean seeds were planted on Jun. 17, 2013. The tillage type was conventional till. The treated crop area for the instant example was 300 square feet (ft^2). The study design was randomized complete block (RCB) with four replications.
Soybean plants were harvested on Oct. 11, 2013. Thereafter, yield of soybean plants administered the composition comprising ortho-ortho EDDHA was compared to the yield of control soybean plants that were untreated.

With `O=C(O)C(NCCNC(C(=O)O)c1ccccc1O)c1ccccc1O` (stereo not shown) [ortho-ortho EDDHA], the yield increase in data set [1] was determined as 8.5 bushels per acre; in data set [2], 4.6 bushels per acre; in data set [3], 8.2 bushels per acre; in the data set on corn seeds, 1.4 bushels per acre; in data set [5], 5.1 bushels per acre. In the data set with corn seeds, the emergence increase is 3.5%. Further, in data set [4], the “compatibility with fertilizers in treatment mixes” value is listed as “possible compatibility issues”. Further, the “yield response (effect in words)” value in the data set on corn (listed as WC101) is “improvement”; in the data set with corn (listed as ligand), “statistically significant effect”. The “plant tissue phosphorus (P) response, ear leaf (effect in words)” value with corn (FIG. 2, Table 8, listed as WC101) is “improvement”; in the data set on corn (FIG. 2, Table 8, listed as ligand), “statistically significant effect”. Moreover, the “grain P removal response (effect in words)” value with corn (FIG. 3, Table 8, listed as WC101) is “improvement”; in the data set on corn (FIG. 3, Table 8, listed as ligand), “statistically significant effect”.
